Data: PubChem BioAssay (NCI)
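GI50 is the concentration that inhibits growth by half. TGI denotes the concentration required for complete inhibition of growth.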

What was measured:
Test in all cases: growth of human tumour cells (NCI), 384-well format
MDA-MB-435 melanoma = system: MDA-MB-435 melanoma
SNB-19 CNS = system: SNB-19 CNS
786-0 renal = system: 786-0 renal
MOLT-4 leukemia = system: MOLT-4 leukemia
T-47D breast = system: T-47D breast
NCI-H322M lung = system: NCI-H322M lung
U251 glioblastoma = system: U251 glioblastoma
NCI-H522 lung = system: NCI-H522 lung
NCI-H460 NSCLC = system: NCI-H460 NSCLC
SF-539 CNS = system: SF-539 CNS
UACC-257 melanoma = system: UACC-257 melanoma
OVCAR-4 ovarian = system: OVCAR-4 ovarian
K-562 leukemia = system: K-562 leukemia
HCT-116 colon = system: HCT-116 colon
A549 NSCLC = system: A549 NSCLC
HOP-92 NSCLC = system: HOP-92 NSCLC
OVCAR-3 ovarian = system: OVCAR-3 ovarian
MALME-3M melanoma = system: MALME-3M melanoma
A498 renal = system: A498 renal
DU-145 prostate = system: DU-145 prostate
SK-MEL-5 melanoma = system: SK-MEL-5 melanoma
OVCAR-5 ovarian = system: OVCAR-5 ovarian
MDA-MB-468 breast = system: MDA-MB-468 breast
TK-10 renal = system: TK-10 renal
LOX IMVI melanoma = system: LOX IMVI melanoma
SN12C renal = system: SN12C renal
SK-MEL-28 melanoma = system: SK-MEL-28 melanoma
SK-OV-3 ovarian = system: SK-OV-3 ovarian
CCRF-CEM leukemia = system: CCRF-CEM leukemia
SF-295 CNS = system: SF-295 CNS
HCC-2998 colon = system: HCC-2998 colon
HCT-15 colon = system: HCT-15 colon

SMILES: CC#CC(=O)N[C@H]1CCCN(c2c(F)cc(C(N)=O)c3[nH]c(C)c(C)c23)C1
- GI50 (MDA-MB-435 melanoma): 17.2 µM
- TGI (MDA-MB-435 melanoma): 34.1 µM
- GI50 (SNB-19 CNS): 17.3 µM
- TGI (SNB-19 CNS): 32.4 µM
- GI50 ([…]-0 renal): 15.9 µM
- TGI (786-0 renal): 33.2 µM
- GI50 (MOLT-4 leukemia): 14 µM
- TGI (MOLT-4 leukemia): 27.1 µM
- GI50 (T-47D breast): 5.36 µM
- TGI (T-47D breast): 18.6 µM
- GI50 (NCI-H322M lung): 16.2 µM
- TGI (NCI-H322M lung): 30.9 µM
- GI50 (U251 glioblastoma): 17.3 µM
- TGI (U251 glioblastoma): 31.4 µM
- GI50 (NCI-H522 lung): 4.54 µM
- TGI (NCI-H522 lung): 17.5 µM
- GI50 (NCI-H460 NSCLC): 15.8 µM
- TGI (NCI-H460 NSCLC): 29.6 µM
- GI50 (SF-539 CNS): 15.3 µM
- TGI (SF-539 CNS): 28.8 µM
- GI50 (UACC-257 melanoma): 11.5 µM
- TGI (UACC-257 melanoma): 23.7 µM
- GI50 (OVCAR-4 ovarian): 13.4 µM
- TGI (OVCAR-4 ovarian): 26.6 µM
- GI50 (K-562 leukemia): 15 µM
- TGI (K-562 leukemia): 28.9 µM
- GI50 (HCT-116 colon): 13.8 µM
- TGI (HCT-116 colon): 27.3 µM
- GI50 (A549 NSCLC): 18.1 µM
- TGI (A549 NSCLC): 37.9 µM
- GI50 (HOP-92 NSCLC): 15 µM
- TGI (HOP-92 NSCLC): 33.7 µM
- GI50 (OVCAR-3 ovarian): 14.5 µM
- TGI (OVCAR-3 ovarian): 28 µM
- GI50 (MALME-3M melanoma): 18 µM
- TGI (MALME-3M melanoma): 32 µM
- GI50 (A498 renal): 14.7 µM
- TGI (A498 renal): 28.4 µM
- GI50 (DU-145 prostate): 18.1 µM
- TGI (DU-145 prostate): 37.2 µM
- GI50 (SK-MEL-5 melanoma): 13.8 µM
- TGI (SK-MEL-5 melanoma): 26.8 µM
- GI50 (OVCAR-5 ovarian): 16.9 µM
- TGI (OVCAR-5 ovarian): 38.4 µM
- GI50 (MDA-MB-468 breast): 2.88 µM
- TGI (MDA-MB-468 breast): 11.1 µM
- GI50 (TK-10 renal): 21 µM
- TGI (TK-10 renal): 58.6 µM
- GI50 (LOX IMVI melanoma): 15.4 µM
- TGI (LOX IMVI melanoma): 28.9 µM
- GI50 (SN12C renal): 14.9 µM
- TGI (SN12C renal): 28.9 µM
- GI50 (SK-MEL-28 melanoma): 18.5 µM
- TGI (SK-MEL-28 melanoma): 33.1 µM
- GI50 (SK-OV-3 ovarian): 14.4 µM
- TGI (SK-OV-3 ovarian): 34.3 µM
- GI50 (CCRF-CEM leukemia): 16.9 µM
- TGI (CCRF-CEM leukemia): 30.8 µM
- GI50 (SF-295 CNS): 13.9 µM
- TGI (SF-295 CNS): 26.9 µM
- GI50 (HCC-2998 colon): 11.1 µM
- TGI (HCC-2998 colon): 23.2 µM
- GI50 (HCT-15 colon): 10.8 µM
- TGI (HCT-15 colon): 22.9 µM
